Patent US12116356B2, “N-heterocyclic five-membered ring-containing capsid protein assembly inhibitor, pharmaceutical composition thereof, and use thereof” (CHIA TAI TIANQING PHARMACEUTICAL GROUP CO., LTD., priority 2018, dated 2024)

Tests used:
[1] = Plasma protein binding assay (equilibrium dialysis), monkey plasma; type: in vitro ADME
Procedure: (§1) Formulation of plasma sample: 495 μL of blank plasmas of the corresponding species (mouse, rat, dog, monkey, and human) were drawn respectively, and thereto was added 5 μL of the corresponding test compound solution or positive control to give plasma sample solutions having a plasma drug concentration of the compound of 1 μM, and 10 μM, respectively (formulated with acetonitrile).
(§2) The pre-treated dialysis membrane was placed in a high-throughput equilibrium dialysis device, and 100 μL of the plasma sample solution and PBS buffer solution were drawn and added respectively to both sides of the dialysis membrane (sample side and buffer side) (n=3). After the equilibration device was sealed with a film, it was incubated at 37° C. overnight (100 rpm). After dialysis equilibrium was reached, 50 μL samples were drawn from the sample side and the buffer side, respectively, and the reaction was terminated by adding ice acetonitrile containing an internal standard.
(§3) Sample pre-treatment: To 50 μL of the plasma-side sample was added 450 μL of ice acetonitrile containing an internal standard, and then precipitated. After vortexing for 5 minutes, the sample was centrifugated (12000 rpm, 4° C.) for 10 minutes. 75 μL of the supernatant was pipetted, and 75 μL of ultrapure water was added thereto for dilution and mixed uniformly. 1 μL of the resulting solution was injected for analysis. To 50 μL of the PBS-side sample was added 250 μL of ice acetonitrile with an internal standard, and precipitated. After vortexing for 5 min, the sample was centrifugated (12000 rpm, 4° C.) for 10 min. 75 μL of the supernatant was pipetted, and 75 μL of ultrapure water was added thereto for dilution and mixed uniformly. 2 μL of the resulting solution was injected for analysis.

[2] = In vitro cytotoxicity (CCK-8) in HepAD38 cells; type: cell-based; conditions: human
Procedure: (§4) A bottle of HepG2.2.15 or HepAD38 cells in good exponential growth state was taken, washed once by adding 5 mL PBS, and then thereto was added 3 mL trypsin. The sample was digested in a cell culture incubator, and taken out from time to time and observed under a microscope. When the cells just fell off, 1 mL trypsin was discarded. The residual liquid was placed in a cell culture incubator at 37° C. and digested for 8-15 min. The cells were taken out and observed under a microscope (whether the cells were individually round and there was no adhesion between the cells). 5 mL MEM medium was added for cell resuspension. The cells were then subjected to cell counting with a cell counter, diluted with a complete medium, and adjusted to a cell density of 2*10^5 cells/mL. Then the cells were seeded at 100 μL/well in a 96-well plate with a multi-channel pipette (the 96-well plate was coated with 50 μg/mL Collagen I solution in advance), and cultured in a constant temperature CO2 incubator for 24 h. The cells were treated by drug administration, and fresh medium containing the compound was used to replace the spent medium every 3 days. To control wells was added a drug-free medium containing 0.5% DMSO, and a control well containing a common medium was set up. 6 days after the administration, CCK-8 was added at 10 μL/well. After 1 to 2 hours, the absorbance was detected with microplate reader at 450 nm, and the inhibition rate and the CC50 were calculated.

[3] = In vitro cytotoxicity (CCK-8) in HepG2.2.15 cells; type: cell-based; conditions: human
Procedure: as §4

[4] = Stability of mouse liver microsomes in vitro; type: in vitro ADME
Procedure: 300 μL of a final incubation system contains 30 μL of liver microsomes (protein concentration: 0.15 mg/mL), 30 μL NADPH+MgCl2, 3 μL substrate (formulated with acetonitrile), and 237 μL PBS buffer. Duplicate incubation systems of 0.3 mL each were formulated for each species. A total volume of 270 μL of a uniformly mixed solution of the substrate and the enzyme was formulated in each tube, the solution and NADPH were pre-incubated at 37° C. for 5 minutes, respectively. Then 30 μL of the mixed solution of NADPH+MgCl2 was added for reaction. 50 μL of the reaction solution was taken out at 0, 10, 30, and 60 mins, and the reaction was terminated with 300 μL of ice acetonitrile containing an internal standard.
Sample pre-treatment: To 50 μL of the incubated sample was added 300 μL of ice acetonitrile containing diazepam as an internal standard and then precipitated. After vortexing for 5 minutes, the sample was centrifugated (12000 rpm, 4° C.) for 10 minutes. 75 μL of the supernatant was pipetted into a 96-well plate, and then diluted with 75 μL ultrapure water and mixed uniformly. 0.5 μL of the resulting solution was injected and analyzed by LC-MS/MS.

[5] = Plasma protein binding assay (equilibrium dialysis), rat plasma; type: in vitro ADME
Procedure: as §1, §2, §3

[6] = test system: HBV DNA in HepG2.2.15 cells; experiment: In vitro cell HBV DNA inhibitory activity (anti-HBV activity) in HepG2.2.15 cells; type: cell-based; conditions: Hepatitis B virus, 144 h; anti-HBV activity in HepG2.2.15 cells, 6 days treatment, intracellular capsid HBV DNA by qPCR; read-out: EC50
Procedure: A bottle of HepG2.2.15 or HepAD38 cells in good exponential growth state was taken, washed once by adding 5 mL PBS, and then thereto was added 3 mL trypsin. After digesting at room temperature for 5 min, 2 mL trypsin was discarded, and then the sample was placed in a cell culture incubator and digested for 10 min. The cells were taken out from time to time and observed under a microscope (whether the cells were individually round and there was no adhesion between the cells). 10 mL complete medium was added to terminate the digestion. After pipetting into a single cell suspension, 10 μL of the cell suspension was taken out for cell counting with a cell counter, and then diluted with a complete medium and adjusted to a cell density of 1*10^5 cells/mL. Then the cell suspension was seeded at 1 mL/well in a 24-well plate with a multi-channel pipette (the 24-well plate was coated with 50 μg/mL Collagen I solution in advance), and cultured in a constant temperature CO2 incubator for 48 h.
Different compounds dissolved in DMSO were subjected to two-fold gradient dilution (10 concentrations in total) with complete medium. The compound was added, and fresh medium containing the compound was used to replace the spent medium every 72 hours. The cells were treated with the compound for 6 days. After the supernatant was siphoned off, 300 μL lysate (10 mM Tris-HCl, 1 mM EDTA, and 1% NP-40) was added to each well. After lysing at room temperature for 10 min, DNA was extracted, and HBV DNA in the intracellular viral capsid was measured by real-time fluorescence quantitative PCR. The inhibition rate was calculated based on the Ct value, and the EC50 value was calculated by the four-parameter method.

| Compound | Binding rate ([1]; 1 μM) | Binding rate ([1]; 10 μM) | CC50 at 6 days [2] | CC50 at 6 days [3] | Remaining (%) at 60 min [4] | Binding rate ([5]; 1 μM) | Binding rate ([5]; 10 μM) | EC50 [6] |
| --- | --- | --- | --- | --- | --- | --- | --- | --- |
| Cc1c(C(=O)Nc2ccc(F)c(C#N)c2)c(C)n(C)c1C(=O)C(=O)N[C@@H](C)C(F)(F)F [Example 12] | 90.7% | 90.6% | > 100 µM | > 100 µM | 67.1% | 82.0% | 79.2% | < 10 nM |
| Cc1c(C(=O)Nc2ccc(F)c(C#N)c2)c(C)n(C)c1C(=O)C(=O)NC1(C(F)(F)F)COC1 [Example 25, N-(3-cyano-4-fluorophenyl)-1,2,4-trimethyl-5-(2-oxo-2-((3-(trifluoromethyl)oxetan-3-yl)amino)acetyl)-1H-pyrrole-3-carboxamide] | 87.4% | 85.6% | > 100 µM | > 100 µM | 50.8% | 79.5% | 77.0% | < 10 nM |
